Literature values, collected in patent US6414139B1, “Silicon amphiphilic compounds and the use thereof” (Imarx Therapeutics, Inc., priority 1996, dated 2002).

Conditions: gel state to liquid crystalline state; CRC Handbook of Lipid Bilayers p. 139

Row | SMILES | Main Phase Transition Temperature
1 | CCCCCCCCCCCCCCCCCCCCCCCC(=O)OC[C@H](COP(=O)([O-])OCC[N+](C)(C)C)OC(=O)CCCCCCCCCCCCCCCCCCCCCCC [1,2-(24:0)] | 80.1 °C
2 | CCCCCCCCCCCCCCCCCCCCCCC(=O)OC[C@H](COP(=O)([O-])OCC[N+](C)(C)C)OC(=O)CCCCCCCCCCCCCCCCCCCCCC [1,2-(23:0)] | 79.5 °C
